Strand notation (5' to 3'): a small letter for the sugar, then the base; units joined by * are phosphorothioate-linked, units joined directly phosphodiester-linked; [ ] holds rarer units or linkages, { } end groups; capitals alone tell only the bases. e = 2'-O-(2-methoxyethyl) (MOE); [5mC] = 5-methylcytosine; d = 2'-deoxy (DNA)
Tests used:
[1] = test system: DBA/1LacJ mice with collagen-induced arthritis; test: Collagen-induced arthritis (CIA) murine model; assay type: in vivo, mouse; settings: CIA in DBA/1LacJ mice; for % Incidence: 10 mg/kg intraperitoneally daily from day -3, control 70%; for Peak day (day from onset of maximum swelling for each joint measure) / Severity (total clinical score divided by the total number of mice in the group): 10 mg/kg intraperitoneally daily; for Peak day (day from onset of maximum swelling for each joint measure): control 6.7 ± 2.9; for Severity (total clinical score divided by the total number of mice in the group): limbs graded 0-4, control 3.2 ± 1.1
Procedure: Collagen-induced arthritis (CIA) was used as a murine model for arthritis (Mussener, A., et al., Clin. Exp. Immunol., 1997, 107, 485-493). Female DBA/1LacJ mice (Jackson Laboratories, Bar Harbor, Me.) between the ages of 6 and 8 weeks were used to assess the activity of B7-1 antisense oligonucleotides.
On day 0, the mice were immunized at the base of the tail with 100 μg of bovine type II collagen which is emulsified in Complete Freund's Adjuvant (CFA). On day 7, a second booster dose of collagen was administered by the same route. On day 14, the mice were injected subcutaneously with 100 μg of LPS. Oligonucleotide was administered intraperitoneally daily (10 mg/kg bolus) starting on day −3 (three days before day 0) and continuing for the duration of the study. Oligonucleotide 17456 (SEQ ID NO. 173) is a fully phosphorothioated analog of 18122.
Weights were recorded weekly. Mice were inspected daily for the onset of CIA. Paw widths are rear ankle widths of affected and unaffected joints were measured three times a week using a constant tension caliper. Limbs were clinically evaluated and graded on a scale from 0-4 (with 4 being the highest).

[2] = test system: Mouse B7-2 mRNA; test: Mouse B7-2 mRNA expression, screened as in Example 4; assay type: cell-based; parameters: % mRNA INHIBITION: concentration or dose not given beside the values; settings: for % mRNA INHIBITION: screened as in Example 4; for % mRNA EXPRESSION: screened as in Example 4, basal = 100.0%
Procedure: For ribonuclease protection assays, cells were harvested 18 hours after completion of oligonucleotide treatment using a Totally RNA™ kit (Ambion, Austin, Tex.). The probes for the assay were generated from plasmids pcB7-2 (linearized by digestion with Bgl II) and pTRI-b-actin (Ambion Inc., Austin, Tex.). In vitro transcription of the linearized plasmid from the SP6 promoter was performed in the presence of α-^32P-UTP (800 Ci/mmole) yielding an antisense RNA complementary to the 3′ end of B7-2 (position 1044-1391). The probe was gel-purified after treatment with DNase I to remove DNA template. Ribonuclease protection assays were carried out using an RPA II™ kit (Ambion) according to the manufacturer's directions. Total RNA (5 μg) was hybridized overnight, at 42° C., with 10^5 cpm of the B7-2 probe or a control beta-actin probe. The hybridization reaction was then treated, at 37° C. for 30 minutes, with 0.4 units of RNase A and 2 units of RNase T1. Protected RNA was precipitated, resuspended in 10 μL of gel loading buffer and electrophoresed on a 6% acrylamide gel with 50% w/v urea at 20 W. The gel was then exposed and the lanes quantitated using a PhosphorImager (Molecular Dynamics, Sunnyvale, Calif.) essentially according to the manufacturer's instructions.
Oligonucleotides were screened as described in Example 4.

[3] = test system: murine B7-2 (mB7-2); test: Murine B7-2 cell surface expression in transfected COS-7 cells by flow cytometry; assay type: cell-based, mouse; settings: for % B7-2 EXPRESSION: mouse B7-2 cell surface expression
Excerpt: (§1) Oligonucleotides (see Table 4) capable of inhibiting expression of murine B7-2 transiently expressed in COS-7 cells were identified in the following manner. A series of phosphorothioate oligonucleotides complementary to murine B7-2 (mB7-2) cDNA were screened for their ability to reduce mB7-2 levels (measured by flow cytometry as in Example 2, except that a conjugated anti-mB7-2 antibody (i.e., anti-mCD86-PE, PharMingen, San Diego, Calif.) in COS-7 cells transfected with an mB7-2 cDNA clone. Anti-mB7-2 antibody may also be obtained from the hybridoma deposited at the ATCC under accession No. HB-253. Oligonucleotides (see Table 2) capable of modulating murine B7-1 expression are isolated in like fashion, except that a conjugated anti-mB7-1 antibody is used in conjunction with COS-7 cells transfected with an mB7-1 cDNA clone.
(§2) B7 antisense oligonucleotides were tested for their effect on cell surface expression of both B7-1 and B7-2. Cell surface expression was measured as described in Example 1. Experiments were done for both human B7 and mouse B7.

[4] = test system: murine B7-1; test: Murine B7-1 cell surface expression in transfected COS-7 cells by flow cytometry; assay type: cell-based; settings: mouse B7-1 cell surface expression, basal = 100%
Excerpt: as §1, §2

[5] = test system: Mouse B7-1 mRNA; test: Mouse B7-1 mRNA expression, screened as in Example 4; assay type: cell-based; parameters: % mRNA INHIBITION: concentration or dose not given beside the values; settings: Table 10
[6] = test system: murine B7-2 (mB7-2); test: mB7-2 cell surface expression in LPS-induced IC-21 cells by flow cytometry; assay type: cell-based, mouse; settings: FIG. 9; for levels of induced mB7-2 expression: 3 μM; for reduction in the level of induced mB7-2 expression: 10 μM
Procedure: In order to further evaluate the murine B7-2 antisense oligonucleotides, the IC-21 cell line was used. IC-21 monocyte/macrophage cell line expresses both B7-1 and murine B7-2 (mB7-2) constitutively. A 2-fold induction of expression can be achieved by incubating the cells in the presence of lipopolysaccharide (LPS; GIBCO-BRL, Gaithersburg, Md.) (Hathcock et al., Science, 1993, 262, 905).
IC-21 cells (ATCC; accession No. TIB 186) were seeded at 80% confluency in 12-well plates in DMEM media with 10% FCS. The cells were allowed to adhere to the plate overnight. The following day, the medium was removed and the cells were washed with PBS. Then 500 μL of OptiMEM™ (GIBCO-BRL, Gaithersburg, Md.) supplemented with 15 μg/mL of Lipofectin™ (GIBCO-BRL, Gaithersburg, Md.) was added to each well. Oligonucleotides were then added directly to the medium at the indicated concentrations. After incubation for 4 hours, the cells were washed with PBS and incubated overnight in culture medium supplemented with 15 μg/mL of LPS. The following day, cells were harvested by scraping, then analyzed for cell surface expression by flow cytometry.

[7] = test system: BALB/c mice with heart allograft; test: Murine heart allograft rejection model; assay type: in vivo, mouse
Procedure: A murine model for evaluating compounds for their ability to inhibit heart allograft rejection has been previously described (Stepkowski et al., J. Immunol., 1994, 153, 5336). This model was used to evaluate the immunosuppressive capacity of antisense oligonucleotides to B7 proteins alone or in combination with antisense oligonucleotides to intercellular adhesion molecule-1 (ICAM-1).
Heart allograft rejection studies and oligonucleotide treatments of BALB/c mice were performed essentially as previously described (Stepkowski et al., J. Immunol., 1994, 153, 5336). Antisense oligonucleotides used included ISIS 11696, ISIS 3082 (targeted to ICAM-1) and ISIS 1082 (a control oligonucleotide targeted to the herpes virus UL-13 gene sequence). Dosages used were 1, 2, 2.5, 5 or 10 mg/kg of individual oligonucleotide (as indicated below); when combinations of oligonucleotides were administered, each oligonucleotide was given at a dosage of 1, 5 or 10 mg/kg (total oligonucleotide dosages of 2, 10 and 20 mg/kg, respectively). The survival times of the transplanted hearts and their hosts were monitored and recorded.

Row | Substance | % Incidence [1] | Peak day (day from onset of maximum swelling for each joint measure) [1] | Severity (total clinical score divided by the total number of mice in the group) [1] | % B7-2 EXPRESSION [3] | % B7-1 EXPRESSION [4] | % mRNA EXPRESSION [5] | % mRNA INHIBITION [5] | mean survival time ([7]; 10 mg/kg/day for 7 days) | also measured
1 | 11696 (antisense dG*dG*dA*dT*dT*dG*dC*dC*dA*dA*dG*dC*dC*dC*dA*dT*dG*dG*dT*dG) [compound 11696] | 37.5% | 11.6 ± 4.5 days | 3.4 ± 1.8 |  |  |  |  |  | 
2 | 18089 (antisense eG*eT*e[5mC]*eA*eA*dA*dG*d[5mC]*dT*d[5mC]*dG*dT*dG*d[5mC]*dG*eG*e[5mC]*e[5mC]*e[5mC]*eA) [compound 18089] | 44.4% | 6.8 ± 2.2 days | 2.3 ± 1.3 | 36% | 85% |  |  |  | % mRNA INHIBITION [2]: 79.1%; % mRNA EXPRESSION [2]: 20.9%
3 | 18097 (antisense eT*eG*e[5mC]*e[5mC]*eA*dA*dG*d[5mC]*d[5mC]*d[5mC]*dA*dT*dG*dG*dT*eG*e[5mC]*eA*eT*e[5mC]) [compound 18097] |  |  |  | 28% | 87% |  |  |  | % mRNA INHIBITION [2]: 75.5%; % mRNA EXPRESSION [2]: 24.5%
4 | 18110 (antisense eA*eT*eG*eA*eG*dG*dA*dG*dA*dG*dT*dT*dG*dT*dA*eA*e[5mC]*eG*eG*e[5mC]) [compound 18110] | 55.6% | 2.0 ± 0.8 days | 2.0 ± 1.3 | 93% | 31% | 21.0% | 79.0% |  | 
5 | 18113 (antisense eG*eT*eG*eA*eA*dG*dT*d[5mC]*d[5mC]*dT*d[5mC]*dT*dG*dA*d[5mC]*eA*e[5mC]*eG*eT*eG) [compound 18113] |  |  |  | 91% | 25% | 24.6% | 75.4% |  | 
6 | 18119 (antisense eG*eT*eT*eA*eA*d[5mC]*dT*d[5mC]*dT*dA*dT*d[5mC]*dT*dT*dG*eT*eG*eT*e[5mC]*eA) [compound 18119] |  |  |  | 98% | 27% | 24.0% | 76.0% |  | 
7 | CTA-AGT-AGT-GCT-AGC-CGG-GA (antisense CTAAGTAGTGCTAGCCGGGA; listed as DNA, chemistry not given here) [ISIS 11866, scrambled # 11696, reference compound] |  |  |  |  |  |  |  |  | inhibition of murine B7-2 cell surface expression ([3]; highest concentration tested (1000 nM)): less than 20%; levels of induced mB7-2 expression [6]: little effect; reduction in the level of induced mB7-2 expression [6]: 40%
8 | GGA-TTG-CCA-AGC-CCA-TGG-TG (GGATTGCCAAGCCCATGGTG; chemistry not given here) [ISIS 11696] |  |  |  |  |  |  |  | 9.3 ± 1.3 days | IC50 ([3]; COS-7 cells, FIG. 8): 200 to 300 nM; mean survival time ([7]; 2 mg/kg/day for 7 days): 9.3 ± 0.6 days; levels of induced mB7-2 expression [6]: greatly reduced; reduction in the level of induced mB7-2 expression [6]: inhibited mB7-2 expression completely
9 | ISIS 1082: control oligonucleotide targeted to the herpes virus UL-13 gene sequence; SEQ ID NO: 102 (125) (antisense GCCGAGGTCCATGTCGTACGC; listed as DNA, chemistry not given here) |  |  |  |  |  |  |  | 7.0 ± 0.8 days | mean survival time ([7]; 5 mg/kg/day for 7 days): 7.1 ± 0.7 days
10 | ISIS 3082: ICAM-1 oligonucleotide, previously described (Stepkowski et al.); SEQ ID NO: 101 (antisense TGCATCCCCCAGGCCACCAT; listed as DNA, chemistry not given here) |  |  |  |  |  |  |  | 15.3 ± 5.8 days | mean survival time ([7]; 1 mg/kg/day for 7 days): 11.0 ± 0.0 days; mean survival time ([7]; 2.5 mg/kg/day for 7 days): 12.0 ± 2.7 days; mean survival time ([7]; 5 mg/kg/day for 7 days): 14.1 ± 2.7 days

Reference: US7897582B2, “Oligonucleotide compositions and methods for the modulation of the expression of B7 protein” (Isis Pharmaceuticals, Inc., priority 2003, dated 2011)
